Format in all cases: physicochemical
Series [1] is described as follows: Stability of dapivirine under extrusion conditions (heating with LC/MS and NMR, DSC, extraction). How it is done:
A series of experiments were conducted to confirm that dapivirine was stable in PU matrix in the extrusion process. First, the thermal stability of dapivirine at the extrusion temperature was examined and analyzed for its non-degradability as follows: dapivirine was heated at 185° C. isothermally for 2 h under air atmosphere and ^1H and ^13C NMR spectra were recorded (Mercury 400 MHz spectrometer, Varian) for the heated and unheated dapivirine. Furthermore, LC/MS analysis was performed on the heated sample and compared to non-heated controls. The MS instrumentation consisted of Micromass Quattro II Triple Quadruple Mass Spectrometer, Waters, Milford, Mass.
Second, a differential scanning calorimetric (DSC) scan was obtained on dapivirine from 25° C. to 230° C. at a heating rate of 10° C./min under air atmosphere with a flow rate of 40 mL/min (Model DSC821e, Mettler Toledo, Columbus, Ohio). To further confirm the stability of dapivirine in the presence of PU under extrusion conditions, DSC analyses were carried out for PU, dapivirine, and PU films loaded with dapivirine at a concentration of 200 mg/g. The high concentration of dapivirine was selected to enable detection of potential exothermic degradation peaks. The DSC spectrum was collected from 25° C. to 230° C. at the heating rate of 10° C./min as well as at an isothermal condition (175° C. for 10 minutes).
Finally, dapivirine was extracted and quantified from extruded rods and PU pellets (both SC and MM) prior to extrusion. The test samples (100 mg of ring segments or pellets) were dissolved in 2 mL of chloroform in a 50 mL centrifuge tube in triplicate followed by precipitation of the PU by addition of 25 mL of methanol using a volumetric flask. The polymer was separated by centrifugation (1600 RCF, 5 min) and the supernatant was quantified for dapivirine content by HPLC. The caps of the centrifuge tubes were closed tightly and wrapped with Teflon tape during the process to minimize evaporation. The efficiency of the extraction of dapivirine from the PU matrix using this method was determined by quantifying the extracted dapivirine content from controls of blank PU pellets (100 mg) to which known amount of dapivirine was added. The three controls used in triplicate were 1) 100 mg of PU pellets with 2 mg of dapivirine 2) 100 mg of PU pellets with 1 mg of dapivirine and 3) 100 mg of PU pellets with 0.25 mg of dapivirine. The mixtures of PU pellets and dapivirine were then subjected to the same precipitation process and dapivirine quantification as above. A linear calibration curve generated from standards of dapivirine in isopropanol (i-prOH) was utilized for quantification of dapivirine content from extracted samples.

The nature of series [2]: In vitro release of dapivirine from PU rings (SC and MM) in 25:75 i-prOH:water. The note with it: for average release rate: rings, two weeks. How it is done: (§1) The release profile of dapivirine was measured from PU-SC rods for a month after which the release kinetics from rings was evaluated for two weeks to determine the correlation of drug release rate from rods to that from rings. This may enable use of rods in place of rings for release kinetics evaluation thereby minimizing the scale of materials such as ring materials, quantity of drugs and volume of sink solutions required for release studies in case of monolithic IVRs. About 2 cm length segments were cut from the solid cross-sectional dapivirine loaded PU SC rods. The dimensions (length and diameter) and weight of each segment were recorded. The segments were incubated with 5 mL 25:75 v/v i-prOH:water as the sink condition in 20 mL septa covered vials at 37° C. in a water bath shaker set at 64±2 rpm. The sink was replaced with fresh co-solvent every 24±0.5 h for 30 days. HPLC analyses were performed every 2 to 5 days and the cumulative release was calculated by integrating the area under the curve using Kaleidagraph software (Synergy Software, Reading, Pa.). The release study for each loading was performed on triplicate samples. At the end of 30 days, the segments were wiped dry and the masses and dimensions of the segments were recorded. Similarly, dapivirine release kinetics were measured from rings (20 mg/g SC, 2.5 mg/g SC, 20 mg/g MM and 2.5 mg/g MM) incubated with 50 mL of 25:75 v/v i-prOH:water mixture as sink condition in 125 mL Erlenmeyer flasks with rubber septa […].
At the end of each release study, the swelling ratio was calculated by using the following equation
[formula] • where • Q=swelling ratio • Mi=mass of ring or rod segments before the release study • Mf=mass ring or rod segments after the release study

A short description of series [3]: In vitro release of dapivirine from PU rods into liposome dispersions. The following applies: 5 mg/g PU rods. How it is done:
It is believed that vaginally delivered lipophilic NNRTI's partition into the lipid bilayer of vaginal epithelial cells.^14,21 Therefore, additional release studies were performed using 100 nm liposome dispersions in pH 4.2 and pH 7.6 buffers as biorelevant sink conditions for 1 week. These pH conditions cover the pH range observed vaginally. Liposome dispersions were synthesized by dissolving egg PC in CHCl3 followed by solvent removal under vacuum. The dried egg PC cake was dispersed in either pH 4.2 (25 mM acetate buffer containing 0.02% sodium azide and osmolarity adjusted to 310 mOsm/kg with NaCl) or pH 7.6 (25 mM phosphate buffer containing 0.02% sodium azide and osmolarity adjusted to 310 mOsm/kg with NaCl) followed by extrusion through a 100 nm membrane (LiposoFast™, Avestin, Ottawa, Canada). The concentration of liposome was 10 mg/mL. Prior to conducting the release study, liposome dispersions were characterized for particle size and zeta potential in a Zetasizer (nano ZS90, Malvern Instruments, Malvern Worcestershire, UK). A third sink condition for comparison was 25:75 v/v i-prOH:water. Approximately 0.5 mm length segments of dapivirine loaded (5 mg/g) PU rods were incubated with 0.5 mL of sink solution in 37° C. water bath shaking at 64±2 rpm. Controls used were dapivirine loaded PU rods suspended with pH 4.2 and pH 7.6 buffers without liposomes and blank PU (no dapivirine) segments in liposome dispersions in pH 4.2 and pH 7.6 buffers. Sinks were replaced and quantified for dapivirine content at frequent time points. HPLC quantification of release in sink samples of liposome dispersions was performed after 1:1 dilution with i-prOH to disrupt the dispersion.

The nature of series [4]: In vitro release of dapivirine from PU-SC rods in 25:75 i-prOH:water. How it is done: as §1, with “The segments were incubated with 5 mL 25:75 v/v i-prOH:water as the sink condition in 20 mL septa covered vials at 37° C. in a water bath shaker set at 64±2 rpm. The sink was replaced with fresh co-solvent every 24±0.5 h for 30 days.” left out, “The release study for each loading was performed on triplicate samples.” left out
At the end of each release study, the swelling ratio was calculated by using the following equation […]

The structures appear in SMILES notation. Some results are limits rather than exact numbers.

Regarding `Cc1cc(C)c(Nc2ccnc(Nc3ccc(C#N)cc3)n2)c(C)c1` [dapivirine, 4-[[4-[(2,4,6-trimethylphenyl)amino]pyrimidin-2-yl]amino]benzonitrile], in series [1] (25° C. to 230° C., 10° C./min, air), the “degradation in DSC thermogram of dapivirine” value is recorded as “no detectable degradation”. Further, the “degradation of dapivirine (LC/MS and NMR, heated vs non-heated)” value in series [1] (185° C. isothermally for 2 h under air) was “no detectable degradation”. Moreover, the “degradation of dapivirine in PU under extrusion conditions (DSC)” value in series [1] (PU films loaded with 200 mg/g, ramp 25 to 230° C. and isothermal 175° C., extrusion 165 to 175° C.) is given as “no detectable degradation”. In series [1] (extraction, HPLC, p value>0.05, unpaired t-test), the “dapivirine content recovered from extruded rods vs SC or MM pellets prior to extrusion” value is reported as “not significantly different”. Besides, the “solubility of dapivirine in PU matrix” value in series [1] (from absence of the 220° C. melting endotherm in DSC of PU films loaded at 200 mg/g) is listed as > 200 mg/g. The “average flux from rings (SC) higher than from rods (SC)” value was 18% in series [2] (2.5 mg/g SC) and 12% in series [2] (20 mg/g SC). In addition, the “release kinetics of SC rings vs MM rings” value in series [2] (p>0.05, unpaired two tailed t-test) is on record as “no significant difference”. The “release rate (order)” value in series [2] (rings SC and MM, 25:75 i-prOH:water, 37° C.) is given as “zero order release rate”. Besides, the average release rate in series [2] (2.5 mg/g dapivirine loading, 25:75 i-prOH:water, 37° C.) was determined as 64 ± 1 µg/day; in series [2] (20 mg/g dapivirine loading, 25:75 i-prOH:water, 37° C.) it was 473 ± 36 µg/day. The “cumulative release over time” value in series [3] (liposome dispersions, one week) is “linear relationship with time”. The “dapivirine release in buffer controls” value in series [3] (pH 4.2 and pH 7.6 buffers without liposomes) is “below the detection limit”. In addition, the results for the “release kinetics relative to 25:75 i-prOH:water sink (slopes of linear fits)” value in series [3] (pH 4.2 liposome dispersion) and in series [3] (pH 7.6 liposome dispersion) were 22 times and 1.5 times, respectively. Further, the “release kinetics (order)” value in series [4] (all loadings (2.5-20 mg/g), 25:75 i-prOH:water, 37° C., one month) was “zero order release kinetics”. Also, the loaded dapivirine released result in series [4] (at the end of 30 days) is recorded as “about 20%”.

The values above are taken from patent US20110045076A1, “LINEAR ORDER RELEASE POLYMER” (priority 2008, published 2011).
